For the assay, the target named is human CTPS1 (Homo sapiens (Human), UniProt P17812). The experiment in a line: hCTPS1 biochemical assay (ADP-Glo). Conditions: hCTPS1 25 nM, ATP 120 uM, UTP 160 uM, GTP 60 uM, L-Glutamine 100 uM, 25 degrees C. (In ADP-Glo the light output rises with the ADP produced.)
human CTPS1, sequence (P17812 whole entry): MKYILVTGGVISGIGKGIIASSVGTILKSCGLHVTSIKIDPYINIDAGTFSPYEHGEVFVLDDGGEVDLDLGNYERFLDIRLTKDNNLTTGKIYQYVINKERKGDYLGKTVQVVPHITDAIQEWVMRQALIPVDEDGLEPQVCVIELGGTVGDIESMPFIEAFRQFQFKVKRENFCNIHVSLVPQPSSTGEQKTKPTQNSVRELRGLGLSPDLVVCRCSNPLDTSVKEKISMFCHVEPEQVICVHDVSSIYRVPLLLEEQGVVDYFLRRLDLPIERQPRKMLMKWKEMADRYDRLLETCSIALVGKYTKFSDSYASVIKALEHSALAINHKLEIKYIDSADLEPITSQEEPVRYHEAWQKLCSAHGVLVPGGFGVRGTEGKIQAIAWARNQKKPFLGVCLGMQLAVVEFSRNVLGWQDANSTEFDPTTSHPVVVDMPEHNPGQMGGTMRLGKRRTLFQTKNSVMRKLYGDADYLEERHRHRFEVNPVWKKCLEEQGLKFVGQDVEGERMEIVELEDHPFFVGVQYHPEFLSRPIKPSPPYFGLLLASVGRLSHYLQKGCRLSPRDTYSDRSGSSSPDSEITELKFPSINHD
Turning to `O=C(NC1(c2csc(NS(=O)(=O)C3CC3)n2)CC1)c1cnc2ccccc2c1` [I-5, N-(1-(2-(cyclopropanesulfonamido)thiazol-4-yl)cyclopropyl)quinoline-3-carboxamide], the IC50 (usually the concentration that inhibits the measured activity by half) was at least 1000 nM.

In turn, `CCOc1cncc(-c2ccc3c(c2)CN(C(CC)c2csc(NS(=O)(=O)C4CC4)n2)C3=O)n1` (stereo not drawn) [I-6, N-(4-(1-(5-(6-ethoxypyrazin-2-yl)-1-oxoisoindolin-2-yl)propyl)thiazol-2-yl)cyclopropanesulfonamide] gave an IC50 of under 100 nM.

As for `O=C(NC1(c2csc(NS(=O)(=O)C3CC3)n2)CC1)c1ccc2ccncc2c1` [I-7, N-(1-(2-(cyclopropanesulfonamido)thiazol-4-yl)cyclopropyl)isoquinoline-7-carboxamide], the half-maximal inhibitory concentration (IC50) was at least 1000 nM. The value for `Cc1cn(-c2ccc(C(=O)NC3(c4csc(NS(=O)(=O)C5CC5)n4)CC3)nc2)cn1` [I-8, N-(1-(2-(cyclopropanesulfonamido)thiazol-4-yl)cyclopropyl)-5-(4-methyl-1H-imidazol-1-yl)picolinamide] was at least 1000 nM; that for `O=C(NC1(c2csc(NS(=O)(=O)C3CC3)n2)CC1)c1ccc2ncccc2c1` [I-9, N-(1-(2-(cyclopropanesulfonamido)thiazol-4-yl)cyclopropyl)quinoline-6-carboxamide] was at least 1000 nM. To `O=C(NC1(c2csc(NS(=O)(=O)C3CC3)n2)CC1)c1ccc2cccnc2c1` [I-10, N-(1-(2-(cyclopropanesulfonamido)thiazol-4-yl)cyclopropyl)quinoline-7-carboxamide] belongs at least 1000 nM; to `O=C(NC1(c2csc(NS(=O)(=O)C3CC3)n2)CC1)c1ccc2c[n+]([O-])ccc2c1` [I-11, 6-(1-(2-(cyclopropanesulfonamido)thiazol-4-yl)cyclopropylcarbamoyl)isoquinoline 2-oxide], at least 1000 nM. `CCOc1cncc(-c2ccc3c(c2)CN(C2(c4csc(NS(=O)(=O)C5CC5)n4)CC2)C3=O)n1` [I-13, N-(4-(1-(5-(6-ethoxypyrazin-2-yl)-1-oxoisoindolin-2-yl)cyclopropyl)thiazol-2-yl)cyclopropanesulfonamide] had a half-maximal inhibitory concentration (IC50) of 100 to 1000 nM.

The compound `CCOc1cncc(-c2ccc(C(=O)NC3(c4csc(N(C)S(=O)(=O)C5CC5)n4)CC3)nc2)n1` [I-14, 5-(6-ethoxypyrazin-2-yl)-N-(1-(2-(N-methylcyclopropanesulfonamido)thiazol-4-yl)cyclopropyl)picolinamide] gave a half-inhibitory concentration (IC50) of at least 1000 nM.

Consider `CCOc1cncc(-c2ccc(C(=O)NCc3cc(NS(=O)(=O)C4CC4)ccn3)cc2)n1` [I-15, N-((4-(cyclopropanesulfonamido)pyridin-2-yl)methyl)-4-(6-ethoxypyrazin-2-yl) benzamide], for which the half-inhibitory concentration (IC50) was under 100 nM. The value for `CCOc1cncc(-c2ccc(C(=O)NCc3cc(NS(=O)(=O)C4CC4)ccn3)nc2)n1` [I-16] was under 100 nM. To `CCOc1cncc(-c2ccc(C(=O)NCc3ccnc(NS(=O)(=O)C4CC4)c3)cc2)n1` [I-17, N-((2-(cyclopropanesulfonamido)pyridin-4-yl)methyl)-4-(6-ethoxypyrazin-2-yl)benzamide] belongs 100 to 1000 nM.

As to `CCOc1cncc(-c2ccc(C(=O)NCc3cccc(NS(=O)(=O)C4CC4)c3)nc2)n1` [I-18, N-(3-(cyclopropanesulfonamido)benzyl)-5-(6-ethoxypyrazin-2-yl)picolinamide], the IC50 lay in the range of 100 to 1000 nM.

Compound `CCOc1cncc(-c2ccc(NC(=O)C(C)(C)n3ccc(NS(=O)(=O)C4CC4)n3)nc2)n1` [I-19, 2-(3-(cyclopropanesulfonamido)-1H-pyrazol-1-yl)-N-(5-(6-ethoxypyrazin-2-yl)pyridin-2-yl)-2-methylpropanamide] came in with an IC50 of 100 to 1000 nM. The value for `CCOc1cncc(-c2ccc(C(=O)NC3(c4cccc5c4ccn5S(=O)(=O)C4CC4)CC3)nc2)n1` [I-20, N-(1-(1-(cyclopropylsulfonyl)-1H-indol-4-yl)cyclopropyl)-5-(6-ethoxypyrazin-2-yl)picolinamide] was at least 1000 nM; that for `CCOc1cncc(-c2ccc(C(=O)NCc3cc(NS(=O)(=O)C4CC4)ncn3)nc2)n1` [I-22, N-[(6-cyclopropanesulfonamidopyrimidin-4-yl)methyl]-5-(6-ethoxypyrazin-2-yl) pyridine-2-carboxamide] was under 100 nM; that for `CCOc1cncc(-c2ccc(C(=O)NCc3cc(NS(=O)(=O)C(F)(F)F)ccn3)nc2)n1` [I-23, 5-(6-ethoxypyrazin-2-yl)-N-((4-((trifluoromethyl)sulfonamido)pyridin-2-yl)methyl) picolinamide] was under 100 nM. `COc1cncc(-c2ccc(C(=O)NCc3cc(NS(=O)(=O)C4CC4)ccn3)nc2)n1` [I-24] returned a half-maximal inhibitory concentration (IC50) of under 100 nM. The value for `CCOc1cncc(-c2ccc(C(=O)NCc3cc(NS(=O)(=O)C4CC4)ccn3)c(F)c2)n1` [I-25] was under 100 nM. The value for `CCOc1cncc(-c2ccc(C(=O)NCc3cncc(NS(=O)(=O)C4CC4)c3)nc2)n1` [I-26, N-((5-(cyclopropanesulfonamido)pyridin-3-yl)methyl)-5-(6-ethoxypyrazin-2-yl) picolinamide] was under 100 nM; that for `CCOc1cncc(N2CCN(C(=O)NCc3cc(NS(=O)(=O)C4CC4)ccn3)CC2)n1` [I-27] was 100 to 1000 nM; that for `CCOc1cncc(N2CCN(C(=O)NCc3cc(NS(=O)(=O)C4CC4)ccn3)C(=O)C2)n1` [I-28] was at least 1000 nM. In turn, `CCOc1cncc(-c2ccc(C(=O)NCc3cc(NS(=O)(=O)C4CC4)ncn3)cc2)n1` [I-29, N-((6-(cyclopropanesulfonamido)pyrimidin-4-yl)methyl)-4-(6-ethoxypyrazin-2-yl)benzamide] displayed an IC50 of under 100 nM. To `CCOc1cncc(-c2ccc(C(=O)NCc3cc(NS(=O)(=O)C(F)F)ccn3)nc2)n1` [I-30, N-[[4-(difluoromethanesulfonamido)pyridin-2-yl]methyl]-5-(6-ethoxypyrazin-2-yl) pyridine-2-carboxamide] belongs under 100 nM; to `Cc1cn2cc(-c3ccc(C(=O)NCc4cc(NS(=O)(=O)C5CC5)ccn4)nc3)cnc2n1` [I-31], at least 1000 nM. The compound `CCOc1cncc(-c2ncc(C(=O)NCc3cc(NS(=O)(=O)C4CC4)ccn3)s2)n1` [I-32] had a 50% inhibitory concentration (IC50) of under 100 nM.

Take `CC(C)Oc1cncc(-c2ccc(C(=O)NCc3cc(NS(=O)(=O)C4CC4)ccn3)cc2)n1` [I-33]: the half-maximal inhibitory concentration (IC50) is under 100 nM. The value for `CCOc1cncc(-c2ccc(NC(=O)Cc3cc(NS(=O)(=O)C4CC4)ccn3)cc2)n1` [I-35] was under 100 nM; that for `CCOc1cncc(-c2ccc(C(=O)NCc3cncc(NS(=O)(=O)C4CC4)c3)cc2)n1` [I-36] was under 100 nM. To `CCOc1cncc(-c2ccc(C(=O)NCc3cc(NS(=O)(=O)C4CC4)cnn3)nc2)n1` [I-37, N-[(5-cyclopropanesulfonamidopyridazin-3-yl)methyl]-5-(6-ethoxypyrazin-2-yl)pyridine-2-carboxamide] belongs under 100 nM; to `CCOc1cncc(-c2ccc(NC(=O)Cc3cc(NS(=O)(=O)C4CC4)ccn3)c(F)c2)n1` [I-39], under 100 nM. The compound `CCOc1cncc(-c2ccc(NC(=O)Cc3cc(NS(=O)(=O)C4CC4)ccn3)nc2)n1` [I-40, 2-(4-(cyclopropanesulfonamido)pyridin-2-yl)-N-(5-(6-ethoxypyrazin-2-yl)pyridin-2-yl)acetamide] returned a half-maximal inhibitory concentration (IC50) of under 100 nM. The value for `O=C(NCc1cc(NS(=O)(=O)C2CC2)ccn1)c1ccc(-c2cncc(N3CCCC3)n2)cc1` [I-42] was 100 to 1000 nM.

Values taken from patent US12331046B2, “CTPS1 inhibitors and uses thereof” (Nimbus Clotho, Inc., priority 2020, dated 2025).
